Measured values as given in the SangsterLogP compilation.

Assay: method code SF-AS, from DOI: 10.1021/jm00089a008, PMID: 1317921
Settings: pH 7.4

| logD | Structure (SMILES) |
| --- | --- |
| -0.68 | O=c1nc(/N=C/N2CCOCC2)ccn1C1CC(F)C(CO)O1 (stereo not drawn) |
| 1.14 | CC(C)N(/C=N/c1ccn([C@H]2C[C@H](F)[C@@H](CO)O2)c(=O)n1)C(C)C |
| 0.72 | CC(C)N(/C=N/c1ccn([C@H]2CC[C@@H](CO)O2)c(=O)n1)C(C)C |
